Test results taken from paper PMC7083837 (Nature Communications, 2020).
Where “and” joins values, the source holds several entries; their conditions need not be identical. Equal values may be shown once.

Key:
SERT WT [1] = molecular target: T1, SERT WT (Homo sapiens, UniProt P31645); experiment: [3H]5-HT uptake in intact COS-7 cells; assay type: cell-based; details: read-out: KM (5-HT); SERT WT
T1 construct: expressed in transfected cells; host or cells: COS-7

SERT WT [2] = molecular target: T1, SERT WT; experiment: [3H]IMI dissociation rate assay (allosteric potency); assay type: binding; details: SERT WT; for IC50: read-out: Allosteric potency inhibition of [^3H]IMI dissociation (IC50);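 as to all read-outs here: membranes of COS-7 cells transiently expressing hSERT, dissociation of prebound radioligand tracked by filtration over seven time points (5–70 min), rate constant with test ligand expressed relative to buffer-only rate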
SERT WT [3] = molecular target: T1, SERT WT; experiment: [3H]S-CIT dissociation rate assay (allosteric potency); assay type: binding; details: for IC50: read-out: Allosteric potency inhibition of [^3H]S-CIT dissociation (IC50)
SERT WT [4] = molecular target: T1, SERT WT; experiment: [3H]S-CIT competition (equilibrium) binding on COS-7 membranes; details: COS-7 membranes, SERT WT; read-out: Inhibition of [^3H]S-CIT binding (IC50);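 also: transiently transfected cell membranes incubated 1 h at room temperature with 5–10 nM [3H]S-CIT, nonspecific binding defined using 5 µM paroxetine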
[5] = tested on: extracellular 5-HT levels in rat hippocampus; experiment: Microdialysis in ventral hippocampus of freely moving rats; assay type: in vivo; design: extracellular 5-HT level / AUC: unit not given here; details: single animals;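 as to extracellular 5-HT level: percent of mean basal level in three fractions before perfusion start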
[6] = log conc -5.4318, listed as AE56461
[7] = log conc -5.9101, listed as AE56461
[8] = log conc -5.9101, listed as AF60098

T1 sequence (P31645 whole entry): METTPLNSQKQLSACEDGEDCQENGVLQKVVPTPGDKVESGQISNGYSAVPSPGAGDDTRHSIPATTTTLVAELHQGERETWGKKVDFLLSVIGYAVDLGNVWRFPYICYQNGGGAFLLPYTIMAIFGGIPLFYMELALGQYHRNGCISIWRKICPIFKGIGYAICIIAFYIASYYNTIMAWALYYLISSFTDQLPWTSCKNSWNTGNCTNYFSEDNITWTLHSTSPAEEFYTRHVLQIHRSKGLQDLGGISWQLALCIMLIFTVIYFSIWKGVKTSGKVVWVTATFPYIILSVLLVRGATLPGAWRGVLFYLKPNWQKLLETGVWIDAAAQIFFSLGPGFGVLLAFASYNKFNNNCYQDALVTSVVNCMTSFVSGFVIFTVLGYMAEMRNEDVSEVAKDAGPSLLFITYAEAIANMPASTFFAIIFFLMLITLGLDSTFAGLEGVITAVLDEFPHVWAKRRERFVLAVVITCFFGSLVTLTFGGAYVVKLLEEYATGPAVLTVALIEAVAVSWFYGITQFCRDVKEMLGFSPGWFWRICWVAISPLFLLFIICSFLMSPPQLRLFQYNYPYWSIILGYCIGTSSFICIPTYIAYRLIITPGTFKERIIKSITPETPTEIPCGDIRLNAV

NCCc1c[nH]c2ccc(O)cc12 [5-HT, Serotonin, reference compound]
Km (SERT WT [1]): 0.52 µM

NC(=O)c1ccc2c(c1)CO[C@@]2(CCCN1CCC(c2ccc3c(c2)NC(=O)CC3)CC1)c1ccc(F)cc1 [AE, (S)-1-(4-fluorophenyl)-1-(3-(4-(2-oxo-1,2,3,4-tetrahydroquinolin-7-yl)piperidin-1-yl)propyl)-1,3-dihydroisobenzofuran-5-carboxamide]
[^3H]IMI dissociation relative to control (source data Fig 3C) (SERT WT [2]; log conc -4.4776, listed as AE56461): 0.06439 and 0.064 and 0.0867 and 0.04446 and 0.04701
[^3H]IMI dissociation relative to control (source data Fig 3C) (SERT WT [2]; [6]): 0.0763 and 0.076 and 0.0996 and 0.0916 and 0.07313
[^3H]IMI dissociation relative to control (source data Fig 3C) (SERT WT [2]; [7]): 0.1205 and 0.121 and 0.184 and 0.1786 and 0.1244
[^3H]IMI dissociation relative to control (source data Fig 3C) (SERT WT [2]; log conc -6.3856, listed as AE56461): 0.2609 and 0.261 and 0.334 and 0.3145 and 0.2627
[^3H]IMI dissociation relative to control (source data Fig 3C) (SERT WT [2]; log conc -6.8627, listed as AE56461): 0.4485 and 0.449 and 0.476 and 0.4376 and 0.458
[^3H]IMI dissociation relative to control (source data Fig 3C) (SERT WT [2]; log conc -7.3398, listed as AE56461): 0.6779 and 0.678 and 0.684 and 0.679 and 0.715
[^3H]IMI dissociation relative to control (source data Fig 3C) (SERT WT [2]; log conc -7.817, listed as AE56461): 0.9119 and 0.9318 and 0.9209 and 0.831 and 0.9158
[^3H]IMI dissociation relative to control (source data Fig 3C) (SERT WT [2]; log conc -8.2941, listed as AE56461): 1.0028 and 1.006 and 0.9639 and 1.0302 and 1.0089
[^3H]IMI dissociation relative to control (source data Fig 3C) (SERT WT [2]; log conc -8.7712, listed as AE56461): 0.9594 and 0.977 and 0.9693 and 1.1187 and 1.1091
IC50 (SERT WT [2]): 119 nM and 120 nM
[^3H]S-CIT dissociation relative to control (source data Fig 3B) (SERT WT [3]; log conc -4, listed as AE56461): 0.304 and 0.27 and 0.327
[^3H]S-CIT dissociation relative to control (source data Fig 3B) (SERT WT [3]; log conc -4.47756, listed as AE56461): 0.466 and 0.496 and 0.522
[^3H]S-CIT dissociation relative to control (source data Fig 3B) (SERT WT [3]; log conc -4.95468, listed as AE56461): 0.654 and 0.732 and 0.716
[^3H]S-CIT dissociation relative to control (source data Fig 3B) (SERT WT [3]; [6]): 0.892 and 0.93 and 0.888
[^3H]S-CIT dissociation relative to control (source data Fig 3B) (SERT WT [3]; [7]): 0.912 and 1.007 and 0.973
[^3H]S-CIT dissociation relative to control (source data Fig 3B) (SERT WT [3]; log conc -6.38561, listed as AE56461): 0.927 and 1.032 and 0.97
[^3H]S-CIT dissociation relative to control (source data Fig 3B) (SERT WT [3]; log conc -6.86273, listed as AE56461): 0.952 and 1.031 and 0.987
IC50 (SERT WT [3]): 33800 nM
IC50 (SERT WT [4]): 1040 nM

NC(=O)c1ccc2c(c1)CO[C@@]2(CCCN1CC=C(c2ccc3ccc(=O)[nH]c3c2)CC1)c1ccc(F)cc1 [AF, (S)-1-(4-fluorophenyl)-1-(3-(4-(2-oxo-1,2-dihydroquinolin-7-yl)-3,6-dihydropyridin-1(2H)-yl)propyl)-1,3-dihydroisobenzofuran-5-carboxamide]
[^3H]IMI dissociation relative to control (source data Fig 3C) (SERT WT [2]; [8]): 0.2397 and 0.2132 and 0.1806 and 0.1901 and 0.1781
[^3H]IMI dissociation relative to control (source data Fig 3C) (SERT WT [2]; log conc -6.3856, listed as AF60098): 0.6028 and 0.4774 and 0.425 and 0.3481 and 0.3211
[^3H]IMI dissociation relative to control (source data Fig 3C) (SERT WT [2]; log conc -6.8627, listed as AF60098): 0.7993 and 0.6981 and 0.6134 and 0.5939 and 0.5386
[^3H]IMI dissociation relative to control (source data Fig 3C) (SERT WT [2]; log conc -7.3398, listed as AF60098): 0.7825 and 0.9163 and 0.612 and 0.781 and 0.6966
[^3H]IMI dissociation relative to control (source data Fig 3C) (SERT WT [2]; log conc -7.817, listed as AF60098): 0.8219 and 0.9518 and 0.9715 and 0.9341 and 0.8939
IC50 (SERT WT [2]): 192 nM and 190 nM
[^3H]S-CIT dissociation relative to control (source data Fig 3B) (SERT WT [3]; log conc -4, listed as AF60098): 0.1701 and 0.2211 and 0.1573 and 0.2182 and 0.2661
[^3H]S-CIT dissociation relative to control (source data Fig 3B) (SERT WT [3]; log conc -4.47756, listed as AF60098): 0.2756 and 0.2914 and 0.2326 and 0.2923 and 0.3084
[^3H]S-CIT dissociation relative to control (source data Fig 3B) (SERT WT [3]; log conc -4.95468, listed as AF60098): 0.3758 and 0.4105 and 0.4138 and 0.4162 and 0.3863
[^3H]S-CIT dissociation relative to control (source data Fig 3B) (SERT WT [3]; log conc -5.4318, listed as AF60098): 0.7059 and 0.6013 and 0.6811 and 0.5633 and 0.7156
[^3H]S-CIT dissociation relative to control (source data Fig 3B) (SERT WT [3]; [8]): 0.8853 and 0.874 and 0.8934 and 0.8911 and 0.9427
[^3H]S-CIT dissociation relative to control (source data Fig 3B) (SERT WT [3]; log conc -6.38561, listed as AF60098): 0.9692 and 0.7987 and 0.9599 and 0.9034 and 0.9936
[^3H]S-CIT dissociation relative to control (source data Fig 3B) (SERT WT [3]; log conc -6.86273, listed as AF60098): 0.955 and 0.9328 and 0.9433 and 0.9567 and 0.9549
IC50 (SERT WT [3]): 10400 nM
IC50 (SERT WT [4]): 79 nM

CN(C)CCCN1c2ccccc2CCc2ccccc21 [imipramine, reference compound]
AUC ([5]; Fig 6B Inset): 84 and 92 and 130 and 62 and 48 and 46 and 143 and 182 and 163 and 129 and 74 and 127 and 73
extracellular 5-HT level ([5]; Fig 6B, Time -40): 77.25 and 153.32 and 98.52 and 112.22 and 48.77 and 123.66 and 115.15 and 92.18 and 91.72 and 110.66 and 146.17
